The source of these data is US9499538B2, “Estrogen receptor modulators and uses thereof” (Seragon Pharmaceuticals, Inc., priority 2012, dated 2016).

As a reminder, the IC50 is the concentration at which inhibition is half-maximal.

In test [1] the test system is MCF-7 cells. The experiment in a line: Breast Cancer Cell Viability Assays (MCF-7, CellTiter-Glo). The settings on record: 5 days' compound exposure; for IC50: Homo sapiens, MCF7, 120 h. In kind it is cell-based. How it is done:
MCF-7 cells were adjusted to a concentration of 20,000 cells per mL in RPMI containing 10% FBS and 20 mM HEPES. 16 microliters of the cell suspension (320 cells) was added to each well of a 384 well plate, and the cells were incubated overnight to allow the cells to adhere. The following day an eleven point, serial semilog dilution of each compound was added to the cells in 16 μL at a final concentration ranging from 0.3-0.000003 μM. After 5 days' compound exposure, 16 μL of CellTiter-GLo (Promega, Madison Wis.) was added to the cells, and the relative luminescence units (RLUs) of each well were determined. CellTiter-Glo added to 32 μL of medium without cells was used to obtain a background value. The Percent viability of each sample was determined as follows: (RLU sample−RLU background/RLU untreated cells−RLU background)×100=% viability. […]
(Cellular ATP, detected with luciferase, serves as a proxy for viable cell number.)

The target in test [2] is T1, ER-α in MCF-7 cells (Homo sapiens, UniProt P03372).
T1 construct: endogenous in cells; host or cells: MCF-7
T1 sequence (P03372 1-595): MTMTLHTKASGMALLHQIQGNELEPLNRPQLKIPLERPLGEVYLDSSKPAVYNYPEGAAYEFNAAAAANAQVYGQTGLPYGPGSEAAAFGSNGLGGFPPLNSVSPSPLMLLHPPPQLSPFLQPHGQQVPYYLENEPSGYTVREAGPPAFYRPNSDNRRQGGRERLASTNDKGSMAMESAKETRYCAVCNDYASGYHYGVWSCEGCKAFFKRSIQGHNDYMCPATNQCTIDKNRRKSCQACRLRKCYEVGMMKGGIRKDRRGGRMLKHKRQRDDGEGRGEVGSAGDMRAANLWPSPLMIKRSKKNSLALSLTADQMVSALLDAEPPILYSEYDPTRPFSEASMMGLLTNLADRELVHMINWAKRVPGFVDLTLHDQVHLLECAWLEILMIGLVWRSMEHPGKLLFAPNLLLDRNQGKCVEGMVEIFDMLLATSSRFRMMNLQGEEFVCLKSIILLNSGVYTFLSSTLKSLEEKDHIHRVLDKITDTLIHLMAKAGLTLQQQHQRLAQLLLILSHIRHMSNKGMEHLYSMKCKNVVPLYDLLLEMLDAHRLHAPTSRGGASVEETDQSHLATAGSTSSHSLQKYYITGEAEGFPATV
The experiment in a line: Breast Cancer Cell ER-α In Cell Western Assay (SP1). Format: cell-based. To be noted: 4 or 24 hr post compound addition; for Emax: MCF7, SP1 antibody, read-out: ER-α In Cell Western Assay (SP1) Max Response; for DC50: SP1 antibody, read-out: ER-α In Cell Western Assay (SP1) IC50. How it is done: MCF-7 cells were adjusted to a concentration of 200,000 cells per mL in RPMI containing 10% charcoal-stripped FBS and 20 mM HEPES. 16 microliters of the cell suspension (3200 cells) was added to each well of a poly-D-lysine 384 well plate, and the cells were incubated overnight to allow the cells to adhere. The following day an eleven point, serial semilog dilution of each compound was added to the cells in 16 μL at a final concentration ranging from 0.3-0.000003 μM. At 4 or 24 hr post compound addition, the cells were fixed (10% formalin in PBS) for 20 minutes. Cells were permeablized in PBS 0.1% Triton and blocked with LICOR blocking buffer (50 μl/well, 90′). The wells were then incubated overnight at 4° C. with SP1 rabbit monoclonal Ab (Thermo Scientific) diluted 1:1000 in LICOR blocking buffer/0.1% Tween-20. Wells which were treated with blocking buffer with Tween but no antibody were used as a background control. Wells were washed with 0.1% Tween-20/PBS and then incubated in goat anti-rabbit IRDye™ 800CW (LICOR Inc.; 1:10000) and DRAQ5 DNA dye (1:2000 for 2 mM stock) diluted in LICOR blocking buffer containing 0.1% Tween-20 and 0.01% SDS for 60 minutes. Cells were washed (50 μl/well, 5′ each) in 0.1% Tween-20/PBS. Plates were scanned on a LICOR Odyssey infrared imaging system. Integrated intensities in the 800 nm channel and 700 nm channel were measured to determine levels of ER and DNA respectively. Percent ER levels were determined as follows: (Integrated intensity 800 nm sample/integrated intensity 700 nm sample)/(Integrated intensity 800 nm untreated cells/integrated intensity 700 nm untreated cells)×100=% ER levels. […]

Structures are written as SMILES.

Turning to `N#Cc1c(/C(=C(/c2ccccc2)C2CCC2)c2ccc(/C=C/C(=O)O)cc2)ccc2[nH]ncc12` [Example 1, (E)-3-(4-((E)-1-(4-Cyano-1H-indazol-5-yl)-2-cyclobutyl-2-phenylvinyl)phenyl)acrylic acid], in test [1], the “MCF7 Viability Assay Max Response” value was “++ (++ = a single % value ≧ 40%)” and the IC50 was not above 100 nM. For the same molecule, in test [2], the Emax was not below 40% and the DC50 was not above 100 nM.

With `O=C(O)/C=C/c1ccc(/C(=C(\c2ccccc2)C2CCC2)c2ccc3[nH]ncc3c2Cl)cc1` [Example 2, (E)-3-(4-((E)-1-(4-Chloro-1H-indazol-5-yl)-2-cyclobutyl-2-phenylvinyl)phenyl)acrylic acid], in test [1], the “MCF7 Viability Assay Max Response” value is “++ (++ = a single % value ≧ 40%)” and the 50% inhibitory concentration (IC50) was not above 100 nM. In addition, in test [2], the Emax was not below 40% and the DC50 was not above 100 nM.

For the molecule `CC/C(=C(/c1ccc(/C=C/C(=O)O)cc1)c1ccc2[nH]ncc2c1C#N)c1ccccc1` [Example 3, (E)-3-(4-((E)-1-(4-Cyano-1H-indazol-5-yl)-2-phenylbut-1-en-1-yl)phenyl)acrylic acid], in test [1], the “MCF7 Viability Assay Max Response” value is on record as “++ (++ = a single % value ≧ 40%)” and the IC50 is not above 100 nM. Also, in test [2], the Emax is not below 40% and the DC50 was not above 100 nM.

Take `O=C(O)/C=C/c1ccc(/C(=C(\c2ccccc2)C2CCC2)c2ccc3c(c2)CNC3=O)cc1` [Example 4, (E)-3-(4-((E)-2-Cyclobutyl-1-(1-oxoisoindolin-5-yl)-2-phenylvinyl)phenyl)acrylic acid]: in test [1], the “MCF7 Viability Assay Max Response” value was “++ (++ = a single % value ≧ 40%)” and the IC50 is not above 100 nM. In test [2], the Emax was not below 40% and the DC50 is not above 100 nM.

Take `O=C(O)/C=C/c1ccc(/C(=C(\c2ccc(F)cc2Cl)C2CCC2)c2ccc3c(c2)CNC3=O)cc1` [Example 5, (E)-3-(4-((E)-2-(2-Chloro-4-fluorophenyl)-2-cyclobutyl-1-(1-oxoisoindolin-5-yl)vinyl)phenyl)acrylic acid]: in test [1], the “MCF7 Viability Assay Max Response” value is on record as “++ (++ = a single % value ≧ 40%)” and the half-maximal inhibitory concentration (IC50) is not above 100 nM. In test [2], the Emax was not below 40% and the DC50 is not above 100 nM.

Take `CC/C(=C(/c1ccc(/C=C/C(=O)O)cc1)c1ccc2[nH]ncc2c1C#N)c1ccc(F)cc1Cl` [Example 6, (E)-3-(4-((E)-2-(2-Chloro-4-fluorophenyl)-1-(4-cyano-1H-indazol-5-yl)but-1-en-1-yl)phenyl)acrylic acid]: in test [1], the “MCF7 Viability Assay Max Response” value was “++ (++ = a single % value ≧ 40%)” and the half-maximal inhibitory concentration (IC50) was not above 100 nM. Moreover, in test [2], the Emax was not below 40% and the DC50 is not above 100 nM.

Regarding `CC/C(=C(/c1ccc(/C=C/C(=O)O)cc1)c1ccc2[nH]nc(F)c2c1F)c1ccccc1` [Example 7, (E)-3-(4-((E)-1-(3,4-Difluoro-1H-indazol-5-yl)-2-phenylbut-1-en-1-yl)phenyl)acrylic acid], in test [1], the “MCF7 Viability Assay Max Response” value is reported as “++ (++ = a single % value ≧ 40%)” and the concentration for half-maximal inhibition (IC50) was not above 100 nM. In addition, in test [2], the Emax is not below 40% and the DC50 is not above 100 nM.

Turning to `CC/C(=C(/c1ccc(/C=C/C(=O)O)cc1)c1ccc2[nH]ncc2c1OC)c1ccccc1` [Example 8, (E)-3-(4-((E)-1-(4-Methoxy-1H-indazol-5-yl)-2-phenylbut-1-en-1-yl)phenyl)acrylic acid], in test [1], the “MCF7 Viability Assay Max Response” value is “++ (++ = a single % value ≧ 40%)” and the IC50 is not above 100 nM. In test [2], the Emax was not below 40% and the DC50 was not above 100 nM.

In the case of `COc1c(/C(=C(/c2ccccc2)C2CCC2)c2ccc(/C=C/C(=O)O)cc2)ccc2[nH]ncc12` [Example 9, (E)-3-(4-((E)-2-Cyclobutyl-1-(4-methoxy-1H-indazol-5-yl)-2-phenylvinyl)phenyl)acrylic acid], in test [1], the “MCF7 Viability Assay Max Response” value is reported as “++ (++ = a single % value ≧ 40%)” and the half-inhibitory concentration (IC50) is not above 100 nM. Further, in test [2], the Emax was not below 40% and the DC50 was not above 100 nM.

In the case of `N#Cc1c(/C(=C(/c2ccccc2F)C2CCC2)c2ccc(/C=C/C(=O)O)cc2)ccc2[nH]ncc12` [Example 10, (E)-3-(4-((E)-1-(4-Cyano-1H-indazol-5-yl)-2-cyclobutyl-2-(2-fluorophenyl)vinyl)phenyl)acrylic acid], in test [1], the “MCF7 Viability Assay Max Response” value is on record as “++ (++ = a single % value ≧ 40%)” and the IC50 is not above 100 nM. In test [2], the Emax was not below 40% and the DC50 was not above 100 nM.

On to `Cc1ccccc1/C(=C(\c1ccc(/C=C/C(=O)O)cc1)c1ccc2[nH]ncc2c1C#N)C1CCC1` [Example 11, (E)-3-(4-((E)-1-(4-Cyano-1H-indazol-5-yl)-2-cyclobutyl-2-(o-tolyl)vinyl)phenyl)acrylic acid], for which, in test [1], the “MCF7 Viability Assay Max Response” value was “++ (++ = a single % value ≧ 40%)” and the IC50 was not above 100 nM. Also, in test [2], the Emax was not below 40% and the DC50 was not above 100 nM.

For the molecule `N#Cc1c(/C(=C(/c2ccccc2)C2CCC2)c2ccc(/C=C/C(=O)O)cc2)ccc2[nH]nc(F)c12` [Example 12, (E)-3-(4-((E)-1-(4-Cyano-3-fluoro-1H-indazol-5-yl)-2-cyclobutyl-2-phenylvinyl)phenyl)acrylic acid], in test [1], the “MCF7 Viability Assay Max Response” value was “++ (++ = a single % value ≧ 40%)” and the half-maximal inhibitory concentration (IC50) was not above 100 nM. Further, in test [2], the Emax was not below 40% and the DC50 is not above 100 nM.

`N#Cc1c(/C(=C(/c2ccccc2)C2CC2)c2ccc(/C=C/C(=O)O)cc2)ccc2[nH]ncc12` [Example 13, (E)-3-(4-((E)-1-(4-Cyano-1H-indazol-5-yl)-2-cyclopropyl-2-phenylvinyl)phenyl)acrylic acid]: in test [1], the “MCF7 Viability Assay Max Response” value is listed as “++ (++ = a single % value ≧ 40%)” and the IC50 is not above 100 nM. Moreover, in test [2], the Emax was not below 40% and the DC50 was not above 100 nM.

As for `N#Cc1c(/C(=C(/c2ccccc2)C2CC2)c2ccc(/C=C/C(=O)O)cc2)ccc2[nH]nc(F)c12` [Example 14, (E)-3-(4-((E)-1-(4-Cyano-3-fluoro-1H-indazol-5-yl)-2-cyclopropyl-2-phenylvinyl)phenyl)acrylic acid], in test [1], the “MCF7 Viability Assay Max Response” value was “++ (++ = a single % value ≧ 40%)” and the half-inhibitory concentration (IC50) was not above 100 nM. Moreover, in test [2], the Emax was not below 40% and the DC50 is not above 100 nM.

With `CC(C)/C(=C(/c1ccc(/C=C/C(=O)O)cc1)c1ccc2[nH]nc(F)c2c1)c1ccccc1` [Example 15, (E)-3-(4-((E)-1-(3-Fluoro-1H-indazol-5-yl)-3-methyl-2-phenylbut-1-en-1-yl)phenyl)acrylic acid], in test [1], the “MCF7 Viability Assay Max Response” value is on record as “++ (++ = a single % value ≧ 40%)” and the IC50 was not above 100 nM. Moreover, in test [2], the Emax is not below 40% and the DC50 was not above 100 nM.

As for `O=C(O)/C=C/c1ccc(/C(=C(\c2ccccc2)C2CCC2)c2ccc3[nH]nnc3c2)cc1` [Example 17, (E)-3-(4-((E)-1-(1H-Benzo[d][1,2,3]triazol-5-yl)-2-cyclobutyl-2-phenylvinyl)phenyl)acrylic acid], in test [1], the “MCF7 Viability Assay Max Response” value was “++ (++ = a single % value ≧ 40%)” and the 50% inhibitory concentration (IC50) was not above 100 nM. For the same molecule, in test [2], the Emax is not below 40% and the DC50 is not above 100 nM.
